Results from patent US20150335657A1, “Methods for Modulating Sirtuin Enzymes” (The Trustees of Princeton University, priority 2014, published 2015).

Experiments:
[1] = Tetrazolium-based cell viability assay (cytotoxicity); details: human
[2] = tested on: human cytomegalovirus (HCMV) AD169 strain; experiment: Antiviral activity against HCMV in MRC5 fibroblasts (virus yield, fluorescent focus assay); assay type: cell-based; details: Human betaherpesvirus 5, HCMV AD169, 1 infectious unit/cell, treated 2 h after infection, virus in medium at 96 h
[3] = target: T1, SIRT6 (Homo sapiens, UniProt Q8N6T7); experiment: Sirtuin deacetylase enzyme activity assay (Cayman Chemical), compound screen; assay type: biochemical; details: compound at 50 μM; Z-score of change in fluorescent signal; + increase, − decrease
T1 construct: purchased Cayman Chemical
T1 sequence (Q8N6T7 whole entry): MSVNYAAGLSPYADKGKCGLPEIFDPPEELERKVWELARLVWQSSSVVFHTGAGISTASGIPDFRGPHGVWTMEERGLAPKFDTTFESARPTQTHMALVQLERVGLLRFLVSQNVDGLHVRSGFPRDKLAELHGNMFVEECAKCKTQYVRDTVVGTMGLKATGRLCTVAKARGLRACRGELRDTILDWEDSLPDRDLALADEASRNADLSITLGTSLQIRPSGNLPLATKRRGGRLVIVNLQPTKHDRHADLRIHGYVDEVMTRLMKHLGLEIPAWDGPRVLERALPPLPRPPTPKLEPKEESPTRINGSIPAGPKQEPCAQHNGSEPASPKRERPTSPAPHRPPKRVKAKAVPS
Excerpt: (§1) Sirtuins have been identified as innate viral restriction factors and it has been previously shown that drugs that modulate the activity of these enzymes block the production of multiple viruses in culture (see, e.g., WO 2012/106509). Sirtuins are NAD-dependent enzymes that regulate the activity of target proteins by post-translational modifications and thereby control key cellular events (see, e.g., Haigis and Sinclair (2010) Ann Rev Pathol Mech Dis 5:253-95). SIRT1, SIRT2, SIRT3 and SIRT6 have shown a detectable deacetylase activity in well-established biochemical assays that utilize recombinant SIRT1, SIRT2, SIRT3, and SIRT6 enzymes and fluorophore-conjugated acetyl-peptides. As described in the Examples below, the deacetylase activity of these sirtuins were used as a surrogate to identify compounds having broad-range antiviral activity.
(§2) A publically disclosed, small molecule library consisting of approximately 13,000 compounds was screened using a commercially available (Cayman Chemical) enzyme activity assay. Deacetylase activity of sirtuins SIRT1, SIRT2, SIRT3, and SIRT6 was used as a surrogate to identify compounds with the potential for having broad-range antiviral activity. The compounds were tested at a single concentration (50 μM) in microtiter plates and their activity against the four sirtuins was recorded as a change in fluorescent signal intensity. […] Activation of sirtuin activity generated positive Z-scores and inhibition of sirtuin activity produced negative Z-scores.

[4] = target: T2, SIRT3 (Homo sapiens, UniProt Q9NTG7); experiment: as above; assay type: biochemical; details: compound at 50 μM; Z-score of change in fluorescent signal; + increase, − decrease
T2 construct: purchased Cayman Chemical
T2 sequence (Q9NTG7 1-399): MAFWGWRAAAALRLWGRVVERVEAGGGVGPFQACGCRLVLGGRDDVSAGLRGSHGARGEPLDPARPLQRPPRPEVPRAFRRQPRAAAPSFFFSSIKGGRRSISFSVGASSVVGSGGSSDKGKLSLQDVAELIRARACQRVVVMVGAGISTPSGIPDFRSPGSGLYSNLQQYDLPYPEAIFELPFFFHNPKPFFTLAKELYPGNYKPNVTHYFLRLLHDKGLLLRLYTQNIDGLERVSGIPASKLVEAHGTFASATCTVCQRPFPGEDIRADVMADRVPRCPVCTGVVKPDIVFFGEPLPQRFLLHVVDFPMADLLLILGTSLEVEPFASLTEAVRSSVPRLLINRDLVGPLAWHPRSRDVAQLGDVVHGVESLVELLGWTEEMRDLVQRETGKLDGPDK
Excerpt: as §1, §2

[5] = target: T3, SIRT2 (Homo sapiens, UniProt Q8IXJ6); experiment: as above; assay type: biochemical; details: compound at 50 μM; Z-score of change in fluorescent signal; + increase, − decrease
T3 construct: purchased Cayman Chemical
T3 sequence (Q8IXJ6 1-389): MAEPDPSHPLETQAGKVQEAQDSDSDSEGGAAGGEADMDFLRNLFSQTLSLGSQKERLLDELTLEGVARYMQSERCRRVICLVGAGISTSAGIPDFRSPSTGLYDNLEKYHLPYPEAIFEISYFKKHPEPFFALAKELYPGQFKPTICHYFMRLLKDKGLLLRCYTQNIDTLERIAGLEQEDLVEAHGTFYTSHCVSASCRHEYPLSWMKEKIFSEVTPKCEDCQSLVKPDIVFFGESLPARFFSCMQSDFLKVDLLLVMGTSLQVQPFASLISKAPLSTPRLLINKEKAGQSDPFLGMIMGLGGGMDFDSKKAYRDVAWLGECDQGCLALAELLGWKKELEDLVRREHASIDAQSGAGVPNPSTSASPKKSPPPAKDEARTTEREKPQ
Excerpt: as §1, §2

[6] = target: T4, SIRT1 (Homo sapiens, UniProt Q96EB6); experiment: as above; assay type: biochemical; details: compound at 50 μM; Z-score of change in fluorescent signal; + increase, − decrease
T4 construct: purchased Cayman Chemical
T4 sequence (Q96EB6 1-747): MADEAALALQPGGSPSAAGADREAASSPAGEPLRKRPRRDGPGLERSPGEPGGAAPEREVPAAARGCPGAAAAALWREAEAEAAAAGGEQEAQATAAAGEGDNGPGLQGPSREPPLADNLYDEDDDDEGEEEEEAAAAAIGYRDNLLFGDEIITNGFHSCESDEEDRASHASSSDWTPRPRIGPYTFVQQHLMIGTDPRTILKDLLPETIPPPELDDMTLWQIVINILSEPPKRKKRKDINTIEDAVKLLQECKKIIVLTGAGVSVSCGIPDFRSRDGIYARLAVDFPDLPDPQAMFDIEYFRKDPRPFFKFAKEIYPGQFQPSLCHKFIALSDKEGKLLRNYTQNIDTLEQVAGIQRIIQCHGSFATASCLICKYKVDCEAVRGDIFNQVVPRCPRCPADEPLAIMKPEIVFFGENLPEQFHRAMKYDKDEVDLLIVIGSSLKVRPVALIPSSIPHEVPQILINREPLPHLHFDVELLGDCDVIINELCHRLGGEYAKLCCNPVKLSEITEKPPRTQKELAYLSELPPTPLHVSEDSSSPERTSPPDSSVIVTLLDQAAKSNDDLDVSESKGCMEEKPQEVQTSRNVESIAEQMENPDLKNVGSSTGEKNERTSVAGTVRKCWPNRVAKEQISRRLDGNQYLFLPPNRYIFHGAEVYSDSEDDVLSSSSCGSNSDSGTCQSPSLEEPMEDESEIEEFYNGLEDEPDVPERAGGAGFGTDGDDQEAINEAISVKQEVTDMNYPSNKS
Excerpt: as §1, §2

SMILES | CC50 at 96 h [1] [µM] | IC50 [2] [µM] | IC90 [2] [µM] | SIRT6 (change in sirtuin deacetylase activity, Z-score class) [3] | SIRT3 (change in sirtuin deacetylase activity, Z-score class) [4] | SIRT2 (change in sirtuin deacetylase activity, Z-score class) [5] | SIRT1 (change in sirtuin deacetylase activity, Z-score class) [6]
Cc1ccc(C(C)C(CN2CCN(C)CC2)Oc2cnccn2)cn1 (stereo not drawn) | > 50 | 30.2 | 56 | +++ (Z-score ≧ 3 = +++) | na (−2 ≦ Z-score < 2 = no activity (na)) | na (−2 ≦ Z-score < 2 = no activity (na)) | na (−2 ≦ Z-score < 2 = no activity (na))
CC(c1ccccc1Cl)C1CN(C2CCC(O)CC2)S(=O)(=O)c2c(F)cccc2O1 (stereo not drawn) | > 50 | 2.33 | 31.3 | +++ (Z-score ≧ 3 = +++) | na (−2 ≦ Z-score < 2 = no activity (na)) | na (−2 ≦ Z-score < 2 = no activity (na)) | na (−2 ≦ Z-score < 2 = no activity (na))
Cc1nn(C2CN(CCn3ccnc3)C(=O)C2c2ccccc2)c(C)c1C (stereo not drawn) | > 50 | 11 | 38.5 | na (−2 ≦ Z-score < 2 = no activity (na)) | −−− (Z-score ≦ −3 = −−−) | −−− (Z-score ≦ −3 = −−−) | −−− (Z-score ≦ −3 = −−−)
COc1cccc(CN2C(=O)c3cccnc3N(C)C2C(F)C(C)c2cnc3ccccc3c2)c1 (stereo not drawn) | 25 to 50 | 1.54 | 15.5 | +++ (Z-score ≧ 3 = +++) | +++ (Z-score ≧ 3 = +++) | +++ (Z-score ≧ 3 = +++) | +++ (Z-score ≧ 3 = +++)
CC(c1ccncc1)C(O)Cn1cc(-c2cc(Cl)cnc2N)nn1 (stereo not drawn) | > 50 | 9.71 | 33.8 | +++ (Z-score ≧ 3 = +++) | ++ (2 ≦ Z-score < 3 = ++) | na (−2 ≦ Z-score < 2 = no activity (na)) | +++ (Z-score ≧ 3 = +++)
CC(c1ccc(F)cc1)C(O)Cn1cc(-c2cc(Cl)cnc2N)nn1 (stereo not drawn) | > 50 | 15.1 | 35.6 | ++ (2 ≦ Z-score < 3 = ++) | na (−2 ≦ Z-score < 2 = no activity (na)) | na (−2 ≦ Z-score < 2 = no activity (na)) | +++ (Z-score ≧ 3 = +++)
CCOc1cc(C(C)C)n(C(CNc2cnc3ccccc3c2)C(C)c2cccnc2C)n1 (stereo not drawn) | > 50 | 9.32 | 41.3 | +++ (Z-score ≧ 3 = +++) | +++ (Z-score ≧ 3 = +++) | na (−2 ≦ Z-score < 2 = no activity (na)) | +++ (Z-score ≧ 3 = +++)
CNC(=O)c1cccc(CN(CCC(C)C(C)C)S(=O)(=O)c2cn(C)cn2)c1 (stereo not drawn) | > 50 | 13.4 | 41.8 | na (−2 ≦ Z-score < 2 = no activity (na)) | na (−2 ≦ Z-score < 2 = no activity (na)) | ++ (2 ≦ Z-score < 3 = ++) | na (−2 ≦ Z-score < 2 = no activity (na))
CC(CCNc1cccnc1)c1c[nH]c2ccccc12 (stereo not drawn) | > 50 | 15.8 | 43.1 | na (−2 ≦ Z-score < 2 = no activity (na)) | na (−2 ≦ Z-score < 2 = no activity (na)) | +++ (Z-score ≧ 3 = +++) | na (−2 ≦ Z-score < 2 = no activity (na))
COc1ccccc1C(C)C(F)CNc1cnc2ccccc2c1 (stereo not drawn) | > 50 | 1.19 | 2.24 | +++ (Z-score ≧ 3 = +++) | na (−2 ≦ Z-score < 2 = no activity (na)) | ++ (2 ≦ Z-score < 3 = ++) | +++ (Z-score ≧ 3 = +++)
CC(c1ccncc1)c1cnc(N2CCc3ccccc3C2)s1 (stereo not drawn) | > 50 | 28.3 | 41.9 | na (−2 ≦ Z-score < 2 = no activity (na)) | na (−2 ≦ Z-score < 2 = no activity (na)) | −−− (Z-score ≦ −3 = −−−) | na (−2 ≦ Z-score < 2 = no activity (na))
CCCN1CC(C(C)c2ccccc2OC)N(c2cccnc2)C1=O (stereo not drawn) | > 50 | 9.91 | 32.2 | +++ (Z-score ≧ 3 = +++) | na (−2 ≦ Z-score < 2 = no activity (na)) | na (−2 ≦ Z-score < 2 = no activity (na)) | na (−2 ≦ Z-score < 2 = no activity (na))
